The record followed here is patent publication US20120232062A1, “AZAINDAZOLES TO TREAT FLAVIVIRIDAE VIRUS INFECTION” (EIGER BIOPHARMACEUTICALS, INC., priority 2009, published 2012).

Data set [1] in a line: Liver microsome stability, human. It counts as in vitro ADME. From the text:
Metabolic stability assays are designed to measure the stability of a test compound in a variety of assay matrices from human and animal species. From a metabolism perspective, a drug would be relatively stable, have a small first-pass effect, and maintain an effective concentration in blood for a reasonable period of time. A microsomal preparation from the liver contains all CYP isozymes and other membrane-bound drug metabolizing enzymes which are responsible for the metabolism for the majority of drugs in humans. Metabolic stability in liver microsomes can determine half-life (T1/2) and intrinsic clearance (Clint). The determination of Clint may be useful to determine whether metabolism is the major elimination pathway when it is compared to total body clearance in vivo. For high metabolic stability in liver microsomes: […] Human, Sprague Dawley rat, and CD-1 mouse liver microsome samples were purchased from BD Gentest. An in vitro metabolic stability assay suitable for use in predicting first pass metabolism of the compounds useful in the methods of the invention is described in this example. […] 6 mM NADPH in 0.1 M K-phosphate buffer is prepared by dissolving 25.1 mg of NADPH tetrasodium salt in 5 mL of K-phosphate buffer. […] The plate is pre-incubated at 37° C. for 10 minutes. 15 μL of NADPH stock solution (6 mM) is added to the wells designated for Time 60 and timed. At 30 min, 15 min, and 5 min, 15 μL of NADPH stock solution (6 mM) is added to the wells. At the end of incubation, 135 μL of ACN containing IS is added to all the wells (60 min, 30 min, 15 min, 5 min and 0 min). Then 15 μL of NADPH stock solution (6 mM) is added to the wells designated as Time 0.
(In general: Liver microsomes are vesicles of endoplasmic reticulum, rich in cytochrome P450 enzymes.)

Data set [2] in a line: Caco-2 permeability testing. It counts as in vitro ADME, human. The conditions noted are these: human, 90 min. From the text: Intestinal epithelium permeability is a critical characteristic that determines the rate and extent of human absorption and affects bioavailability of a drug candidate. Poor intestinal permeability leads to limited absorption. Generally, higher absorption is preferred. The Caco-2 cell line is a human colon adeno-carcinoma cell line that resembles the epithelial lining of the human small intestine. Several transport proteins that are expressed in human intestinal epithelium are also expressed in the Caco-2 cell model. Some transporter proteins are efflux systems which mediate the secretion of compounds from inside the cell back to the apical lumen (representative of the intestinal lumen), limiting overall absorption. In a permeability assay, the apparent permeability coefficient is measured between the apical to basolateral sides of a cell monolayer, Papp (A-B), and the basolateral to the apical side, Papp (B-A). Papp (A-B)<2×10^−6 cm/s is predictive of low permeability to the basolateral side, 2×10^−6 cm/s<Papp (A-B)<20×10^−6 cm/s is predictive of medium permeability, and Papp (A-B)>20×10^−6 cm/s is predictive of high permeability. In the B-A permeability assay, Papp (B-A) is measured and compounds evaluated for efflux potential. Together, these assay results are reported as a ratio of Papp (B-A) to Papp (A-B). Papp (B-A)/Papp (A-B)>3 are likely to be transported by one of the efflux systems, and have poor absorption. Papp (B-A)/Papp (A-B)<3 are likely to show reasonable intestinal absorption. An in vitro drug absorption assay suitable for use in predicting intestinal absorption of the compounds useful in the methods of the invention is described in this example. The embodiments of this assay described in this example were developed by Shanghai ChemPartner Co., Ltd., a corporation of China with its principal office located at 720 Cailun Road, Building No. 3, Shanghai 201203, China.
Caco-2 (ATCC, catalog No. HTB-37™) cells are cultured in growth medium (MEM+10% FBS+1% NEAA). The growth medium is prepared by adding 50 mL FBS and 5 mL NEAA to 445 mL of MEM or by adjusting the final volume according to actual needs. Trypsin-EDTA (Invitrogen, Cat #25200-072) is also used.
Hanks Balanced Salt Solution (HBSS, Invitrogen, Cat #14025-092) with 25 mM HEPES, pH 7.4, HBSS buffer with 0.2% DMSO (50 μL DMSO into 25 ml HBSS buffer), and HBSS buffer with 0.4% DMSO (100 μL DMSO into 25 ml HBSS buffer) are used.
10 mM stock solutions of a compound is prepared in DMSO and Lucifer Yellow in assay buffer using the formula (Actual Weight/Molecular Weight)/mL solvent=10 mM. Erythromycin, Metoprolol, and Atenolol are used as reference compounds. Donor solutions (10 μM for compounds and 5 μM for Lucifer Yellow) are prepared. For A-B, 4 μL of 10 mM compound stock solution and 2 μL of 10 mM Lucifer Yellow stock solution are loaded into 4 mL of HBSS buffer, and centrifuged (5 min, 4000 rpm) to precipitate undissolved particles. Supernatants are collected for compound dosing. For B-A, 4 μL (compounds) of 10 mM compound stock solution is added to 4 mL HBSS buffer with 0.2% DMSO, and centrifuged (5 min, 4000 rpm) to precipitate undissolved particles. Supernatants are collected for compound dosing.
Receiver solutions are prepared. For A-B, the solution is HBSS buffer with 0.4% DMSO. For B-A, 2 μL of 10 mM Lucifer Yellow stock solution is added to 4 mL of HBSS buffer with 0.2% DMSO. Compound solutions are prepared for standard curve (3 μM/1 μM/0.2 μM/0.04 μM/0.01 μM/0.005 μM):
1× solution: 3 μL of 20× solution (0.1-60 μM)+57 μL 0.4% DMSO HBSS+60 μL acetonitrile (ACN) with internal standard (IS, 200 ng/mL Osalmid). The assay was performed as described below
Stock cultures are maintained in MEM+10% FBS+1% NEAA, grown in 75 cm^2 tissue culture treated flasks and split (passed) 2 times weekly to maintain desired confluence. For maintenance passage, trypsinized cells are routinely distributed into new flasks at a standard passage ratio of 1:4. […]
In general terms: Caco-2 cells form a polarised layer with tight junctions and transporters.

In the case of `Cn1nc(CCCN2CCCC2)c2ccc(N3CCCCCCC3)nc21` [compound 1171], the “human liver microsome (HLM, % parent remaining)” value in data set [1] (after 15 min) came out at 67 % parent remaining; in data set [1] (after 30 min), 44 % parent remaining; in data set [1] (after 60 min) it was 23 % parent remaining. In data set [2] (Caco-2, pH 7.4, Caco-2, A-B, read-out: Permeability (second figure of Efflux/permeability), Papp (A-B)), the Papp A→B at 90 min, 10 µM turned out to be 17 ×10⁻⁶ cm/s. Besides, the Papp B→A at 90 min, 10 µM in data set [2] (Caco-2, pH 7.4, Caco-2, B-A, read-out: Efflux (first figure of Efflux/permeability), Papp (B-A)) amounted to 11 ×10⁻⁶ cm/s.
